In brackets after ≈: the same amount, converted by molar mass.
The compounds below were run on multidrug-resistant (MDR) strains of Mycobacterium tuberculosis (assay: microbe, parasite or virus in culture). Conditions: 192 h, read-out: Anti-tubercular activity (MIC) MDR-TB.
Format: cell-based

Going from `O=c1[nH]c(=O)c2c(-c3c[nH]c4ccccc34)nc(=S)[nH]c2[nH]1` [Compound 4a, 5-(1H-Indol-3-yl)-7-thioxo-7,8-dihydropyrimido[4,5-d]pyrimidine-2,4(1H,3H)-dione] to `O=c1[nH]c(=S)[nH]c2[nH]c(=S)nc(-c3c[nH]c4ccccc34)c12` [Compound 4b, 5-(1H-Indol-3-yl)-2,7-dithioxo-2,3,7,8-tetrahydropyrimido[4,5-d]pyrimidin-4(1H)-one], the MIC falls from 16 µg/mL (≈ 51.4 µM) to 8 µg/mL (≈ 24.4 µM) (2-fold).

In the case of `Cn1c(=O)c2c(-c3c[nH]c4ccccc34)nc(=S)[nH]c2n(C)c1=O` [Compound 4c, 5-(1H-Indol-3-yl)-1,3-dimethyl-7-thioxo-7,8-dihydropyrimido[4,5-d]pyrimidine-2,4(1H,3H)-dione], the MIC is reported as 4 µg/mL (≈ 11.8 µM).

— patent publication US11976076B1 (priority 2023, dated 2024)
